# From patent publication US20240425478A1, “CYCLOPENTYLPYRAZOLE CDK2 INHIBITORS” (Genentech, Inc., priority 2021, published 2024)
# Where two headings read alike, the source gives them in different places.
# How the values were obtained:
# [1] = biological target: T1, Cyclin Dependent Kinase 1/Cyclin A2 (CDK1-cycA2) (Homo sapiens, UniProt P06493); assay: CDK1-cycA2 TR-FRET (Lance) enzyme assay; assay type: biochemical; conditions: for FS CDK1/CDK2: fold selectivity, enzymatic Ki ratio
# T1 construct: purchased ProQinase 0134-0054-1
# T1 sequence (P06493 whole entry): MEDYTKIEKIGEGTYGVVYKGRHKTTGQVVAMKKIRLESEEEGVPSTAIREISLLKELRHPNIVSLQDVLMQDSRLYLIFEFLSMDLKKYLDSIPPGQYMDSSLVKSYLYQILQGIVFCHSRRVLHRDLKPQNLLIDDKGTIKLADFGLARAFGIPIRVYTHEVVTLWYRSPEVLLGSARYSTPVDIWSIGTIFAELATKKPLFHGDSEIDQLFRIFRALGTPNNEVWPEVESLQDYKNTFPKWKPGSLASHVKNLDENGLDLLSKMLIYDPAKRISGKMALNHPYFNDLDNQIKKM
# T1 sequence (P20248 whole entry partner): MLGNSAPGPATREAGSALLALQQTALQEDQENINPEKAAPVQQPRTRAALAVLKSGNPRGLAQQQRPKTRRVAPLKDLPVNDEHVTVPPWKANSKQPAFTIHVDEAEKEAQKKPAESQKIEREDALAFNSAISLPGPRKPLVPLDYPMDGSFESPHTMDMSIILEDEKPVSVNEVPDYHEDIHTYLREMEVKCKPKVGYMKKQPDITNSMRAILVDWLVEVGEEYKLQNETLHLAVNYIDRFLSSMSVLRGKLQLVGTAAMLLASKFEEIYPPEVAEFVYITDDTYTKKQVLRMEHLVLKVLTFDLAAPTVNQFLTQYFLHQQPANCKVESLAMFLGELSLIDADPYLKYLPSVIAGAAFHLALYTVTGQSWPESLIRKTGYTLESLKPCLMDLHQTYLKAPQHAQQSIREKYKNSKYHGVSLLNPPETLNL
# Method in brief: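 TR-FRET (Lance) detection of phospho-4E-BP1 with a europium-labelled antibody after EDTA quench (15 mM final); signal taken as acceptor/donor ratio. Enzyme and compound were pre-incubated 30 min in HEPES pH 7.5 buffer with MgCl2, TCEP, BGG and Brij 35. Ki derived by Morrison fit.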
# [2] = biological target: T2, Cyclin Dependent Kinase 2/Cyclin E1 (CDK2-cycE1) (Homo sapiens, UniProt P24941); assay: CDK2-cycE1 TR-FRET (LANCE) enzyme assay; assay type: biochemical; conditions: for Ki: enzymatic assay, read-out: CDK2 Ki
# T2 construct: purchased ProQinase 0050-0055-1
# Method in brief: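 Kinase reaction buffer: 50 mM HEPES pH 7.5, 10 mM MgCl2, 2 mM TCEP, 0.05% BGG, 0.01% Brij 35, with 30 min compound–enzyme pre-incubation.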
# [3] = biological target: T3, Cyclin Dependent Kinase 4/Cyclin D3 (CDK4-cycD3) (Homo sapiens, UniProt P11802); assay: CDK4-cycD3 TR-FRET (LANCE) enzyme assay; assay type: biochemical; conditions: for FS CDK4/CDK2: fold selectivity, enzymatic Ki ratio
# T3 construct: purchased Carna Biosciences 04-105
# T3 sequence (P11802 whole entry): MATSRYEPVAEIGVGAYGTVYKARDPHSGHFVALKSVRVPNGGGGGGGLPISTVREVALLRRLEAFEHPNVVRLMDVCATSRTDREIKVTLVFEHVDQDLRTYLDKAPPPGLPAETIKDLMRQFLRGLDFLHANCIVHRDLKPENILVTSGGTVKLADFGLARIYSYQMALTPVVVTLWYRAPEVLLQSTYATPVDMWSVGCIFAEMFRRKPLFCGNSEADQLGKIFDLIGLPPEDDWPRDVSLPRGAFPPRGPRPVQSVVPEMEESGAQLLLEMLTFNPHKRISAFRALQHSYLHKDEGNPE
# T3 sequence (P30281 whole entry partner): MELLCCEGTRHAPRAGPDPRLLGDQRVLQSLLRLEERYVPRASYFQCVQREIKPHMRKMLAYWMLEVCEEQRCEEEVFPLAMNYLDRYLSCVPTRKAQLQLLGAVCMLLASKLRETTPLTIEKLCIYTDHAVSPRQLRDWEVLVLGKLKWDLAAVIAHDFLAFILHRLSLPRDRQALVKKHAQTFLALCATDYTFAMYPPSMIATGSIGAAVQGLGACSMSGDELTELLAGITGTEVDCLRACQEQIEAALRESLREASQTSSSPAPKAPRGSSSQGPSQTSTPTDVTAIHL
# Method in brief: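 Compound dose responses pre-incubated 30 min with enzyme mix in 50 mM HEPES pH 7.5, 10 mM MgCl2, 2 mM TCEP, 0.05% BGG, 0.01% Brij 35. Reaction quenched with EDTA (15 mM final); Eu-anti-phospho-4E-BP1 TR-FRET detection, acceptor/donor ratio. Ki derived by Morrison equation.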
# [4] = system: OVISE (JCRB1043, CCNE1-amplified); assay: OVISE EdU incorporation cell proliferation assay (CDK2-dependent); assay type: cell-based
# Method in brief: (§1)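 EdU incorporation (0.5 μM final, last 8 h) follows a 16 h compound exposure at 37 °C, 5% CO2 in RPMI plus 10% FBS, 0.5% DMSO. After fixation, imaging scores EdU-positive cells; a 4-parameter logistic fit of that fraction gives IC50.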
# SKOV-3 (ATCC HTB-77) = assay: SKOV-3 EdU incorporation cell proliferation assay (CDK4/6-dependent); assay type: cell-based; conditions: for IC50: Homo sapiens, cellular assay, read-out: CDK4/6 SKOV-3 IC50; for FS SKOV-3/OVISE: fold selectivity, cellular IC50 ratio
# Method in brief: as §1
# HCT116 cells = assay: p-H3 HCT-116 mitotic release cell proliferation assay (cellular CDK1); assay type: cell-based; conditions: Homo sapiens, HCT-116; Table O, cellular assay; read-out: CDK1 p-H3 IC50
# Procedure: Inhibition of cellular CDK1 determined by release of cells from nocodazole-induced mitotic arrest, as measured by decrease in phospho-Histone H3. Histone H3 (Ser 10) level is detected in cell lysates by producing a Fluorescence Resonance Energy Transfer (FRET) signal between two antibodies, Phospho-Histone H3 Cryptate (acting as the donor) and Phospho-Histone H3 d2 (acting as the acceptor).
# Plates are allowed to rest overnight at 37° C./5% CO2. The following morning, nocodazole is diluted in complete medium, and 5 μL is added to each test well and positive control well for a final concentration of 500 nM. Plates are then incubated for 16 hours at 37° C./5% CO2. […] 10 μL of diluted compound is then transferred to the cell plate (final DMSO concentration 0.1%). Cell plates are then incubated for 4 hours in 37° C. 5% CO2. A cell lysis buffer is prepared on ice using reagents from the Phospho-Histone H3 (Ser10) cellular kit (Cisbio-64HH3PEG). Supernatant is discarded from the cell plate and 80 μL of the supplemented cell lysis buffer (1:99 dilution of the Blocking Reagent and the 1× cell lysis buffer provided in the kit) is added to each of the experimental wells. The cell lysis reaction is allowed to proceed at room temperature while shaking vigorously for 30 minutes. The 384-well HTRF (Homogeneous Time Resolved Fluorescence) plate is prepared by adding 2 μL of each diluted antibody (Phospho-Histone H3 Cryptate antibody and Phospho-Histone H3 d2 antibody diluted 19:1 in a detection buffer) and 12 μL of the supplemented cell lysis buffer to each well in the HTRF plate. 4 μL of the cell lysate is added to the prepared HTRF plate which is then sealed and the reaction is allowed to proceed for a minimum of 2 hours at room temperature.
smiles,measurement,setting,value
"Cn1cc(Nc2cc([C@H]3CC[C@@H](OC(=O)NC(C)(C)C)C3)[nH]n2)ccc1=O [Example 1, (1R,3S)-3-(3-((1-methyl-6-oxo-1,6-dihydropyridin-3-yl)amino)-1H-pyrazol-5-yl)cyclopentyl tert-butylcarbamate]",Ki,"[1]; Table O, enzymatic assay",270 nM
same,"FS CDK1/CDK2 increased over Comparator D, (+) sign",[1]; Table R,(+)
same,FS CDK1/CDK2,[1]; Table R,36
same,FS CDK1/CDK2,[1]; Table S,36
same,Ki,[2]; Table O,7.6 nM
same,FS CDK1/CDK2,"[2]; Table O, fold selectivity, enzymatic CDK1 Ki over CDK2 Ki",36
same,FS CDK4/CDK2,"[2]; Table O, fold selectivity, enzymatic CDK4 Ki over CDK2 Ki",92
same,Ki,[2]; Table R,7.6 nM
same,CDK2 Ki fold change in potency versus Comparator D,"[2]; Table R, in brackets after CDK2 Ki",0.4 fold
same,Ki,[2]; Table S,7.6 nM
same,CDK2 Ki fold change in potency versus Comparator E,"[2]; Table S, in brackets after CDK2 Ki",0.1 fold
same,Ki,"[3]; Table O, enzymatic assay",700 nM
same,"FS CDK4/CDK2 increased over Comparator D, (+) sign",[3]; Table R,(+)
same,FS CDK4/CDK2,[3]; Table R,92
same,"FS CDK4/CDK2 increased over Comparator E, (+) sign",[3]; Table S,(+)
same,FS CDK4/CDK2,[3]; Table S,92
same,IC50,"[4]; Table O, cellular assay, read-out: CDK2 OVISE IC50",220 nM
same,FS SKOV-3/OVISE,"[4]; Table O, fold selectivity, cellular SKOV-3 IC50 over OVISE IC50",>91
same,FS p-H3/OVISE,"[4]; Table O, fold selectivity, cellular p-H3 IC50 over OVISE IC50",0.45
same,CDK2 OVISE IC50 fold change in potency versus Comparator D,"[4]; Table R, in brackets after OVISE IC50",17 fold
same,CDK2 OVISE IC50 fold change in potency versus Comparator E,"[4]; Table S, in brackets after OVISE IC50",0.8 fold
same,IC50,"SKOV-3 (ATCC HTB-77); SK-OV-3, Table O",> 20000 nM
same,IC50,"SKOV-3 (ATCC HTB-77); SK-OV-3, Table R",> 20000 nM
same,IC50,"SKOV-3 (ATCC HTB-77); SK-OV-3, Table S",> 20000 nM
same,selectivity for CDK2 over CDK4 compared with Comparator E,SKOV-3 (ATCC HTB-77); SKOV-3/OVISE fold-selectivity cellular assay data,increase in selectivity for CDK2 over CDK4
same,"FS SKOV-3/OVISE increased over Comparator D, (+) sign",SKOV-3 (ATCC HTB-77); Table R,(+)
same,FS SKOV-3/OVISE,SKOV-3 (ATCC HTB-77); Table R,> 91
same,"FS SKOV-3/OVISE increased over Comparator E, (+) sign",SKOV-3 (ATCC HTB-77); Table S,(+)
same,FS SKOV-3/OVISE,SKOV-3 (ATCC HTB-77); Table S,> 91
same,IC50,HCT116 cells,100 nM
